Assay results published in patent US20230381275A1, “MUSCULAR FUNCTION IMPROVING AGENT FOR SKELETAL MUSCLE OF WHICH FUNCTION IS DEGRADED DUE TO AGING” (OSAKA UNIVERSITY, priority 2020, published 2023).

Experiments:
[1] = test system: aging-accelerated model mice (SAMP10); test: Mean cross-sectional area of muscle fibers, HE staining, 40-week-old mice (Example 3); type: in vivo; conditions: 40-week-old SAMP10 mice; treadmill training plus SV peptide 20 ng/ml; vs PBS control; FIG. 3B
Procedure: In this example, we evaluated muscle fibers in aging-accelerated model mice after continuous administration of SV peptide.
Aging-accelerated model mice (SAMP10 21 weeks old) were trained on a treadmill (MK-680; Muromachi Kikai Co., Ltd.) (18 m/min×90 min) and subsequent SV peptide administration was performed according to the same schedule as in Example 1. After 36 weeks of age, training on the treadmill and subsequent SV peptide administration were conducted under the same conditions as at 35 weeks of age, and continued until the aging-accelerated model mice reached 40 weeks of age. In the control group, after training under the same conditions as the experimental group, PBS was injected into the bilateral lower limb muscles instead of SV peptide.
The gastrocnemius and soleus muscles of the lower limbs were then removed from 40-week-old aging-accelerated model mice, sections were prepared according to the standard method, and HE staining was performed.

[2] = test system: aging-accelerated model mice; test: Endurance evaluation test on treadmill (Example 5); type: in vivo; conditions: SV group
Procedure: (§1) In this example, the training schedule and SV peptide administration concentration were changed from Example 4, and exercise evaluation (endurance evaluation) was conducted in aging-accelerated model mice when SV peptide was continuously administered. In addition, the cross-sectional area of muscle fibers (gastrocnemius (type I, type IIa, type IIb), extensor digitorum longus, and tibialis anterior muscles) were evaluated in mice that continued training and SV peptide administration until 51 weeks of age.
(§2) Aging-accelerated model mice were trained on a treadmill (MK-680; Muromachi Kikai Co., Ltd.) (18 m/min×90 min) and subsequent SV peptide administration was performed according to the schedule in the following table. 30 weeks of age and thereafter, training was performed continuously from Monday to Friday of each week. SV peptide was added to PBS to adjust to a concentration of 1 μg/ml for an injection formulation and localized to the bilateral leg muscles of each mouse anesthetized by inhalation with sevoflurane immediately after training on Tuesday and Friday (SV group; twice weekly administration). Exercise evaluations were performed every other Friday.
Exercise evaluation was performed by endurance assessment, in which the belt speed on the treadmill was increased stepwise at regular intervals. The elapsed time and belt speed increase used for the endurance evaluation test were the same as in Example 4. In the PBS group as a control group, PBS was injected into the bilateral leg muscles instead of SV peptide after training on the treadmill in the same manner as in the SV group.
The results of the endurance evaluation test are shown in FIG. 7 as a graph showing the difference between the mean running distance on the reference date (30 weeks of age) and the mean running distance in each test.
The results of the endurance evaluation test are also shown in FIG. 8 as a graph showing the difference between the mean speed on the reference day and the mean speed on each test day. The mean speed for each group was calculated as the mean of the highest speeds reached by each mouse in each group (mean speeds were calculated in the same manner hereinafter).

[3] = test system: aging-accelerated model mice; test: Mean cross-sectional area of muscle fibers, HE staining, 51-week-old mice (Example 5); type: in vivo
Procedure: as §1, §2
The gastrocnemius, extensor digitorum longus, and tibialis anterior muscles of the lower limbs were removed from 51-week-old aging-accelerated model mice, and after sections were prepared according to the standard method, the cross-sectional area of muscle fibers was measured by HE staining. […] The mean cross-sectional area of muscle fibers was also measured for each type of gastrocnemius muscle fiber (type I, type IIa, and type IIb). The mean cross-sectional area of muscle fibers was the mean of more than 50 fibers of each muscle fiber type.

[4] = test system: aging-accelerated model mice; test: Endurance evaluation test on treadmill (Example 6); type: in vivo; conditions: SV group, SV peptide 2 μg/ml one dose every other week plus training
Procedure: In this example, the number of SV peptide doses and dosage in Example 4 was changed as shown in the following table, and exercise evaluation (endurance evaluation) was performed when SV peptide was continuously administered to aging-accelerated model mice. The conditions other than the number of SV peptide doses and dosage were the same as in Example 4.
Specifically, SV peptide was added to PBS to adjust to a concentration of 2 μg/ml for the injectable formulation, and localized to the bilateral lower limb muscles of each mouse anesthetized by inhalation with sevoflurane immediately after training on Friday every other week (even weeks) (SV group; one dose every other week).
The results of the endurance evaluation test are shown in FIG. 12 with a graph showing the mean running distance for the SV group (n=3) and the PBS group (n=4). A graph showing the difference between the mean running distance on the reference date (30 weeks old) and the mean running distance in each test is also shown in FIG. 13.

[5] = relative to SVVYGLR (SEQ ID NO.: 1); earlier work of the inventors; cited from earlier work
[6] = test system: fibroblasts; conditions: see Patent Document 1; cited from earlier work
[7] = test system: fibroblasts; conditions: Non-Patent Documents 5, 6, Patent Documents 1-4; cited from earlier work
[8] = test system: animal models of injured skeletal muscle; conditions: local administration, Non-Patent Document 7, Patent Document 5; cited from earlier work
[9] = SV group vs PBS group, mean of more than 50 fibers, FIGS. 10 and 11
[10] = SV peptide 1 μg/ml plus training from 28 to 51 weeks, vs PBS group, FIG. 9

Substance: SVVYGLR [SV peptide, peptide consisting of 7 amino acids (SVVYGLR]
- mean cross-sectional area of fast muscle fibers (gastrocnemius muscle) [1]: significantly higher than in the control group
- mean cross-sectional area of slow muscle fibers (soleus muscle) [1]: significantly higher than in the control group
- decrease in the mean running distance during the test period ([2]; 1 μg/ml twice weekly plus training, relative to the PBS group, FIG. 7): able to suppress the decrease in the mean running distance
- decrease in mean speed during the test period ([2]; 1 μg/ml twice weekly plus training, relative to the PBS group, FIG. 8): able to suppress the decrease in mean speed
- mean speed (mean of highest speeds reached) relative to reference day ([2]; 1 μg/ml twice weekly plus training, test from 31 to 39 weeks of age, FIG. 8): increased continuously
- mean running distance relative to the reference date (30 weeks of age) ([2]; SV peptide 1 μg/ml twice weekly plus training, tests at 31 to 41 weeks of age, FIG. 7): increased from the reference date
- cross-sectional area of type I gastrocnemius muscle fibers [3, 9]: increased compared to the PBS group
- cross-sectional area of type IIa gastrocnemius muscle fibers [3, 9]: increased compared to the PBS group
- cross-sectional area of type IIb gastrocnemius muscle fibers [3, 9]: increased compared to the PBS group
- mean cross-sectional area of muscle fibers, extensor digitorum longus muscle [3, 10]: significantly larger than that in the PBS group
- mean cross-sectional area of muscle fibers, gastrocnemius muscle [3, 10]: significantly larger than that in the PBS group
- mean cross-sectional area of muscle fibers, tibialis anterior muscle [3, 10]: significantly larger than that in the PBS group
- mean running distance ([4]; after 49 weeks of age): able to maintain the same mean running distance as the 30-week-old group
- mean running distance ([4]; from 31 to 48 weeks of age, FIGS. 12 and 13): increased significantly
- angiogenic effect [5]: promoting angiogenesis
- type III collagen production-promoting effect / type III collagen secretion [6]: promoting
- differentiation of fibroblasts to myofibroblasts [7]: promoting
- diameter of regenerated muscle fibers [8]: significantly higher
- muscle tissue regeneration [8]: promotes muscle tissue regeneration
